What is called Kd is the equilibrium constant for the complex coming apart. Broadly, the Hill coefficient is the slope factor of the fitted curve.

SMILES strings stand for the structures. Read-outs that look alike come from different tables or passages of the source.

Assay [1] concerns goldfish olfactory neurons. Briefly: multi-unit recordings from the goldfish olfactory epithelium. Format: cell-based. The following applies: 100 μM.
The test system of assay [2] is catfish olfactory neurons. The note with it: 100 μM, catfish olfactory epithelium; cited from earlier work.
A further assay deals with T1, receptor 5.24 (Carassius auratus, UniProt Q9PW88).
T1 construct: The receptor 5.24 full length cDNA detects 1-2 bands in genomic DNA blots; expressed in transfected cells; host or cells: HEK 293 cells expressing SV40 large T antigen (293-TSA)
T1 sequence (Q9PW88 25-877): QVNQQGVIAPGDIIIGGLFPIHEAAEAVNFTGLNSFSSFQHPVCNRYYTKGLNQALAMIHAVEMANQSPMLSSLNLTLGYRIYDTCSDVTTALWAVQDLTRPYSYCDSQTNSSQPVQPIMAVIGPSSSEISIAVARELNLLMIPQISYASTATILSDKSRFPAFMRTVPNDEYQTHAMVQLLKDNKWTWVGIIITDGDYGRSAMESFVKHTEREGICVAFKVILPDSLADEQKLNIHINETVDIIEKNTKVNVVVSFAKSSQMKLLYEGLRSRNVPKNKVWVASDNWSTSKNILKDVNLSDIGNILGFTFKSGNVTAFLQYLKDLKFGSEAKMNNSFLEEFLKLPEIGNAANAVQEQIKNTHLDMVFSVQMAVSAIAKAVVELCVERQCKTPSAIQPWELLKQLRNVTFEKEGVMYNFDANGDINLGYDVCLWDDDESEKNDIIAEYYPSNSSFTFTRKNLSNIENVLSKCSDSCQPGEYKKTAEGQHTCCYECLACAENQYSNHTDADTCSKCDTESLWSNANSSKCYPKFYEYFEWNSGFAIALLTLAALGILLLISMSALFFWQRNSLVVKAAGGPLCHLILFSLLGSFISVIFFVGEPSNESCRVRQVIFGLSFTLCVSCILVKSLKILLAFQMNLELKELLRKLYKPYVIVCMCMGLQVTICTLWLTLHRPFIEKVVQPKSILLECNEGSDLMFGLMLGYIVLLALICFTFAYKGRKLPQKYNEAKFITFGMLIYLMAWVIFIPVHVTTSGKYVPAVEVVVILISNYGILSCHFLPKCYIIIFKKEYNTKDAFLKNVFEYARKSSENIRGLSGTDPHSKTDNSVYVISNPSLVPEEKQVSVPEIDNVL
In words: 3H-L-arginine saturation binding to membranes of receptor 5.24-expressing HEK 293 cells. Details: species or system goldfish. The source says: High-Affinity Binding of Radiolabeled L-Arginine to the Cloned Goldfish Odorant Receptor. To determine the affinity of the cloned goldfish amino acid receptor for basic amino acids, we characterized the ligand-receptor interaction by radiolabeled ligand binding to receptors expressed in mammalian cells. Human embryonic kidney (HEK) 293 cells were transfected with expression plasmids containing the receptor 5.24 cDNA insert. […] We next wished to determine what second messenger pathway receptor 5.24 couples to in HEK 293 cells. Control cells or cells expressing receptor 5.24 were exposed to varying concentrations of arginine and assayed for the accumulation of IP3 and cAMP.
Mammalian Cell Culture and DNA Transfections. For cell transfections, the receptor 5.24 cDNA insert was subcloned into two expression vectors: CMVI, which utilizes a human cytomegalovirus (CMV) immediate early promoter-enhancer plus the CMV intron A sequence to drive expression, and 608RX-2.2L, which is similar to CMVI except the cDNA insert is followed by an internal ribosome entry site (IRES)—enhanced green fluorescent protein (EGFP) coding sequence; 608RX-2.2L also contains a puromycin resistance gene. For transient assays, HEK 293 cells expressing the SV40 large T antigen (293 TSA cells) were transfected with the CMVI-receptor 5.24 or CMVI control plasmid using lipofectamine (Life Technologies) and harvested at 48 hours for membrane preparations. For stable cell lines, 293-TSA cells were transfected with the 608RX-2.2L-receptor 5.24 plasmid or a control 608RX-2.2L plasmid and selected in puromycin. Colonies showing high levels of EGFP fluorescence (as judged by epifluorescence microscopy) were picked, expanded, and screened for 3H-L-arginine binding (see below). In five independent receptor 5.24-transfected stable cell lines, receptor densities (Rt) varied between 0.5 and 6.0 pmol L-arginine binding sites/mg membrane protein. […] All competition binding assays and signal transduction studies were performed using the stable cell line 5.24-20 (Rt=2.0 pmol /mg) and a control cell line (2.2-9) stably transfected with vector alone (Rt=0.03 pmol/mg).
Membrane Preparations and Ligand Binding Assays. Membranes for ligand binding assays were prepared by washing confluent cells three times with phosphate buffered saline (PBS), detaching cells with a PBS-based enzyme-free dissociation solution, and resuspending cells in ice-cold 5.0 mM Hepes, pH 7.4, 1.0 mM EDTA, 1.0 μg/ml leupeptin, 0.5 mM PMSF. All subsequent manipulations were performed on ice. After a 30 min incubation, the cell suspension was homogenized and centrifuged at 100,000×g for 30 min. Cell membrane pellets were washed twice by resuspension and centrifugation in binding buffer (20 mM Hepes, pH 7.4, 1.0 mM EDTA, 2.0 mM MgCl2, 1.0 μg/ml leupeptin, 0.5 mM PMSF), resuspended in binding buffer, and frozen at −80° C.
Saturation binding assays were performed using 20-25 μg of membrane protein in a final volume of 100 μl binding buffer and increasing concentrations of [2,3-3H] L-arginine (specific activity=40 Ci/mmol; Dupont NEN). Non-specific binding was measured in the presence of 500 μM unlabeled L-arginine. Competition assays were performed with 500 nM [2,3-3H] […] Filters were washed three times with 4.0 ml ice cold 20 mM Hepes, pH 7.4, and retained radioactivity was measured by scintillation counting. […] Data were analyzed by nonlinear curve fitting using Origin software (Microcal). […]

As to `N=C(N)NCCC[C@H](N)C(=O)O` [L-Arginine], the “locations with spontaneous activity that responded” value in assay [1] is 25 out of 28. Moreover, in assay [2], the “fraction of olfactory neurons responding” value is reported as about 40%. Further, the Kd at receptor 5.24 (mean±SEM, n=4, read-out: dissociation constant (Kd)) is 121 ± 33 nM; at receptor 5.24 (range of n=4 determinations, read-out: dissociation constant (Kd), range), 52 to 207 nM; on receptor 5.24 (summary statement, read-out: Kd (high affinity interaction)) it was about 100 nM. The compound further came in with a Hill coefficient at receptor 5.24 (mean±SEM, n=4 determinations) of 0.95±0.07.

The values are drawn from patent publication US6410249B1, “Odorant receptors” (priority 1999, dated 2002).
